What was measured:
[1] = system: Trypanosoma cruzi; experiment: Trypanocidal activity against Trypanosoma cruzi Tulahuen 2 epimastigotes at 25 uM after 5 days; format: functional; conditions: Tulahuen 2, 120 h
[2] = system: Trypanosoma cruzi; experiment: Trypanocidal activity against Trypanosoma cruzi Tulahuen 2 epimastigotes after 5 days; format: functional, organism-based; conditions: Tulahuen 2, 120 h
[3] = system: Vero; experiment: Cytotoxicity against African green monkey Vero cells after 48 hrs by MTT assay; format: cell-based; conditions: Chlorocebus sabaeus
[4] = Selectivity index, ratio of IC50 for African green monkey Vero cells to IC50 for Trypanosoma cruzi Tulahuen 2 epimastigotes; format: toxicity, cell-based; conditions: read-out: Ratio IC50

SMILES	inhibition at 25 µM [1] [%]	IC50 [2] [µM]	IC50 [3] [µM]	selectivity ratio [4]
CC1CS(=O)(=O)CCN1/N=C/c1ccc([N+](=O)[O-])o1 (stereo not drawn) [NIFURTIMOX]	100	–	–	–
CC(=O)c1c(C(F)(F)F)[n+]([O-])c2cc(F)c(N3CCSCC3)cc2[n+]1[O-]	83.4	2	–	–
O=C(Cn1ccnc1[N+](=O)[O-])NCc1ccccc1 [BENZNIDAZOLE]	100	8	–	–
O=C(c1ccc(F)cc1)c1c(C(F)(F)F)[n+]([O-])c2cc(F)c(F)cc2[n+]1[O-]	91.8	0.6	3	5
CC(=O)c1c(C(F)(F)F)[n+]([O-])c2cc(F)c(N3CCC(O)CC3)cc2[n+]1[O-]	84.9	6.3	–	–
O=C(c1ccc(F)cc1)c1c(C(F)(F)F)[n+]([O-])c2cc(Cl)c(Cl)cc2[n+]1[O-]	89.3	1.3	–	–
CC(=O)c1c(C(F)(F)F)[n+]([O-])c2cc(F)c(N3CCOCC3)cc2[n+]1[O-]	100	6.4	–	–
O=C(c1ccco1)c1c(C(F)(F)F)nc2cc(Cl)c(N3CCOCC3)cc2[n+]1[O-]	91.7	12.1	455	37.6
CC(C)C(=O)c1c(C(F)(F)F)[n+]([O-])c2cc(N3CCOCC3)c(N3CCOCC3)cc2[n+]1[O-]	66.3	17	–	–
CC(=O)c1c(C(F)(F)F)[n+]([O-])c2cc(F)c(N3CCCCC3)cc2[n+]1[O-]	96.9	2.6	15.2	5.8
CC(=O)c1c(C(F)(F)F)[n+]([O-])c2cc(F)c(N3CCC(N4CCOCC4)CC3)cc2[n+]1[O-]	93.4	5.3	–	–
CC(=O)c1c(C(F)(F)F)[n+]([O-])c2cc(N3CCC(O)CC3)c(N3CCC(O)CC3)cc2[n+]1[O-]	15.7	> 25	–	–
O=C(c1ccc(F)cc1)c1c(C(F)(F)F)[n+]([O-])c2ccc(F)cc2[n+]1[O-]	95.6	1.1	4.4	4
CCOC(=O)c1c(C(F)(F)F)nc2cc(Cl)c(N3CCOCC3)cc2[n+]1[O-]	54.6	> 25	–	–
O=C(c1ccc(F)cc1)c1c(C(F)(F)F)[n+]([O-])c2ccc(Cl)cc2[n+]1[O-]	86.1	1	–	–
CC(=O)c1c(C(F)(F)F)[n+]([O-])c2cc(N3CCCCC3)c(N3CCCCC3)cc2[n+]1[O-]	100	2.3	4.5	1.7
CC(C)C(=O)c1c(C(F)(F)F)[n+]([O-])c2cc(N(C)C)c(N3CCOCC3)cc2[n+]1[O-]	86	10.7	–	–

— ChEMBL document CHEMBL3751782, “Synthesis and biological evaluation of quinoxaline di-N-oxide derivatives with in vitro trypanocidal activity” (Bioorg Med Chem Lett, 2016)
